# Data: patent publication US8410075B2, “Mannich base N-oxide drugs” (Cascade Prodrug Inc., priority 2007, dated 2013)
# Columns and labels:
# [1] = Hydrolysis of Mannich bases; assay type: physicochemical
# Method: We observed that indole-derived Mannich bases 30, 32 and 34, unlike the other Mannich bases herein described, were quite stable toward hydrolysis. For example, only 30% of Mannich base 34 was hydrolyzed after 80 h in D2O.
# [2] = observed by Sloan et al.; could not be isolated as a stable molecule; cited from earlier work
# [3] = Stability of Mannich base N-oxides in D2O monitored by 1H NMR; assay type: physicochemical; conditions: for at least several days
# Method: The mixture of 3 and 4 was rechromatographed on a Chromatotron with 5:3:0.3 dichloromethane/methanol/ammonia as eluent to give 200 mg (22%) of the N^3 isomer 3 (faster moving isomer on TLC) which was pure by TLC, ^1H and ^19F NMR spectroscopy. The ^1H and ^19F NMR spectra of 3 (D2O) were consistent with the assigned structure. APCI MS (m/e): Calcd. for C9H12FN3O4 (M+H), 246.0; found (M+H) 246.0. Continued elution gave 140 mg (15% yield) of the N^1 isomer 4 (slower moving spot on TLC), which was pure by TLC, ^1H and ^19F NMR spectroscopy. APCI MS (m/e): Calcd. for C9H12FN3O4 (M+H), 246.0; found (M+H) 246.0. N-oxides 3, 4, and 5 were stable in D2O for at least several days as monitored by ^1H NMR spectroscopy. The structures of Mannich base N-oxides 3 and 4 were confirmed by single crystal x-ray analysis. Example 6
# [4] = Reduction of 5-FU-derived Mannich base N-oxides with triphenylphosphine in CDCl3 and hydrolysis to 5-fluorouracil (1H and 19F NMR); assay type: physicochemical; conditions: mixture of N-oxides 3 and 4, 2 equiv triphenylphosphine in CDCl3 at RT, 70-h time period
# Method: Triphenylphosphine is known to reduce N-oxides to the corresponding amines See Gallos, J. K. and Argyropoulos, N. G. Synthesis 1:83-86 (1991). A mixture of N-oxides 3 and 4 was dissolved in CDCl3 and then treated with 2 equiv of triphenylphosphine in CDCl3 at RT and monitored by ^1H and ^19F NMR spectroscopy. According to the ^1H and ^19F NMR spectra, the N-oxides underwent reduction and spontaneous hydrolysis to 5-fluorouracil to the extent of about 90% over a 70-h time period. Thus, not only are the N-oxide groups reduced back to the corresponding Mannich bases, but also the Mannich bases undergo hydrolysis back to 5-FU in the presence of adventitious water.
# [5] = Rearrangement of Mannich base N-oxides to O-substituted hydroxylamine isomers in solution (NMR); assay type: physicochemical; conditions: for conversion to rearranged product 20: chloroform solution at RT for 72 h
# Text: Examples 5-14 describe the synthesis of several Mannich bases (structures B and structures G in Chart 1) and the corresponding Mannich base N-oxides (structures C and H). In cases where R═H in structure A, the synthesis of the rearranged N-oxide isomer D is also described. […] However, when R═H in A, the Mannich base N-oxide C (R═H) undergoes rearrangement over time to the corresponding isomer D. Rearrangement tends to be very slow (several days) in aqueous solution but more rapid (a few hours) in CDCl3 and depends to some extent on which secondary amine was used to prepare the Mannich base. In one case, the hydrochloride salt (structure E) of a Mannich base N-oxide C where R═H was prepared. Mannich base N-oxide salt E was stable toward rearrangement.
# N-(Dimethyl-N′-oxido-aminomethyl)-benzamide (13) and N-(Dimethyl-aminooxymethyl)-benzamide (14). Mannich base 12 (0.18 g, 0.001 mol) was dissolved in dichloromethane (5 mL) and then solid MCPBA (0.26 g, 0.0015 mol) was added to the stirred solution in an ice/water bath. After stirring for 20 min as the solution warmed to RT, the solvent was evaporated. The residue was chromatographed on a Chromatotron with dichloromethane/methanol as eluent. Evaporation of the eluent in the cold is accompanied by rearrangement, giving 150 mg (66%) of the mixture Mannich base N-oxide 13 (Rf˜0.2 in dichloromethane/methanol, 5:1) and the rearranged benzamide derivative 14 (Rf˜0.8 in dichloromethane/methanol, 5:1). A sample of the mixture was allowed to stand in CDCl3 at RT while it was monitored by ^1H NMR.
# N-(Piperidin-1-oxido-1-yl-methyl)-benzamide (16) and N-(Piperidin-1-yloxymethyl)-benzamide (17). Mannich base 15 (0.2 g, 0.92 mmol) was dissolved in 2 mL of dichloromethane and then the solution was added to a stirred solution of MCPBA (0.24 g, 1. 14 mmol) in 2 mL of dichloromethane in an ice/water bath. After 5 min of stirring at RT, the solvent was evaporated and the residue was chromatographed on a Chromatotron with dichloromethane/methanol mixture, 5:1 to 5:3 as eluent. The desired fractions were combined and the solvents were evaporated to give Mannich base N-oxide 16 (0.15 g, 72% yield). […] The ^1H and ^13C NMR spectra of 17 are consistent with the assigned structure. […] It was difficult to get clean NMR spectra of 16 in any solvent.
# N-(Morpholin-4-oxido-4-ylmethyl)-benzamide (19) and N-(Morpholin-4-oxido-4-ylmethyl)-benzamide Hydrochloride (21) and N-(Morpholin-4-yloxymethyl)-benzamide (20). Mannich base 18 (0.283 g, 1.3 mmol) was dissolved in dichloromethane (6 mL) and the solution was cooled in an ice/water bath. To this stirred solution MCPBA (0.3 g, 1.7 mmol) was added as a solid. After 10 min the reaction mixture was divided in half. The first half was evaporated and chromatographed on a Chromatotron with dichloromethane/methanol 5:0.5 to 5:2 as eluent giving mostly rearranged product 20 (0.1 g, 67%). […] The ^1H and ^13C NMR spectra of 20 were consistent with the assigned structure. APCI MS (m/z): Calcd. for 20, C12H17N2O3 (M+1) 236.1; Found 236.1 A sample of 20 was recrystallized from EtOAc/hexanes giving crystals that were subject to x-ray analysis.
# The second half of the MCPBA oxidation solution was extracted with 1N HCl. The water layer was evaporated to dryness and then the residue was treated with dichloromethane and re-evaporated to give the N-oxide HCl salt 21 (0.11 g, 73%) as a waxy solid which was stable in CDCl3 solution for several days. The ^1H NMR spectra were consistent with the assigned structure. […] A sample of 21 was recrystallized from MeOH/Et2O giving crystals that were subject to x-ray analysis. APCI MS (m/z APCI MS (m/z): Calcd. 21 C12H17N2O3 (M+1) 236.1; Found 236.1.
compound,measurement,setting,value
"O=c1c(F)cn(CN2CCOCC2)c(=O)n1CN1CCOCC1 [Mannich base 2, 5-Fluoro-1,3-bis-morpholin-4-ylmethyl-1H-pyrimidine-2,4-dione]",stability toward hydrolysis,[1],extreme sensitivity
"CN(C)Cn1cc(F)c(=O)n(CN(C)C)c1=O [Mannich base 6, 1,3-Bis-dimethylaminomethyl-5-fluoro-1H-pyrimidine-2,4-dione]",sensitivity toward hydrolysis,[2],very sensitive
"CN(C)Cn1ccc2ccccc21 [Mannich base 32, N-(Dimethylaminomethyl)-indole]",stability toward hydrolysis,[1],quite stable
"O=c1[nH]cc(F)c(=O)n1C[N+]1([O-])CCOCC1 [Mannich base N-oxide 3, 5-Fluoro-3-(4-oxido-morpholin-4-yl-methyl)-1H-pyrimidine-2,4-dione]",stability in D2O,[3],stable
same,extent of reduction and spontaneous hydrolysis to 5-fluorouracil,[4],about 90%
"O=c1[nH]c(=O)n(C[N+]2([O-])CCOCC2)cc1F [Mannich base N-oxide 4, 5-fluoro-1-(4-oxido-morpholin-4-yl-methyl)-1H-pyrimidine-2,4-dione]",stability in D2O,[3],stable
same,extent of reduction and spontaneous hydrolysis to 5-fluorouracil,[4],about 90%
"O=c1c(F)cn(C[N+]2([O-])CCOCC2)c(=O)n1C[N+]1([O-])CCOCC1 [Mannich base N-oxide 5, 5-fluoro-1,3-bis-(4-oxido-morpholin-4-yl-methyl)-1H-pyrimidine-2,4-dione]",stability in D2O,[3],stable
"O=C(NC[N+]1([O-])CCCCC1)c1ccccc1 [Mannich base N-oxide 16, N-(Piperidin-1-oxido-1-yl-methyl)-benzamide]",rearranged product 17 in 1H NMR spectrum,[5]; D2O,10-20%
same,onset of rearrangement of 16 to 17,[5]; after adding CDCl3,starts immediately
"O=C(NC[N+]1([O-])CCOCC1)c1ccccc1 [Mannich base N-oxide 19, N-(Morpholin-4-oxido-4-ylmethyl)-benzamide]",conversion to rearranged product 20,[5],clean conversion
"Cl.O=C(NC[N+]1([O-])CCOCC1)c1ccccc1 [N-oxide HCl salt 21, N-(Morpholin-4-oxido-4-ylmethyl)-benzamide Hydrochloride]",stability in CDCl3 solution,"[5]; CDCl3 solution, several days",stable
same,conversion to rearranged product 20,[5],no rearranged product 20 was formed
N-(Dimethyl-N′-oxido-aminomethyl)-benzamide [Mannich base N-oxide 13],conversion to the rearranged product,"[5]; CDCl3 at RT, over several hours, 1H NMR",Essentially complete conversion
